We go through seven molecules from ChEMBL document CHEMBL3585318, “Effect of water solvation on the lipophilicity of isomeric pyrimidine-carboxamides” (Bioorg Med Chem, 2015).

Broadly, the pKa is the pH at which an ionisable group is half protonated. A low value points to a stronger acid or weaker base. For orientation: logP means the decadic logarithm of the partition coefficient of the neutral form, usually between octanol and water. The term logD denotes the decadic logarithm of the distribution of all forms, ionised or not, between an organic phase and buffer at a given pH.

Assay type in all cases: physicochemical
Series [1] in a line: Dissociation constant, pKa of the compound.
Series [2] in a line: Partition coefficient of buffer-octanol system, logP of the compound by shake-flask method.
A short description of series [3]: Lipophilicity, log D of the compound at pH 7.4 by UV/Vis spectroscopy based shake-flask method. The conditions noted are these: buffer.

Regarding `CCNC(=O)c1cc(N(C)C)nc(OC)n1`, the pKa in series [1] was found to be 3.8. Moreover, the log partition coefficient (logP) in series [2] worked out at 1.7. Also, the logD in series [3] was determined as 1.6.
`O=C1CCCc2ncccc21`: the logP in series [2] is 1.2. The molecule further returned a logD in series [3] of 0.9.
For `O=C1CCCc2ccncc21` the same measures were 0.9 and 0.8.
For the molecule `O=C1CCCc2cccnc21`, the logP in series [2] was 0.4. In series [3], this molecule registered a logD of 0.2.
For `O=C1CCCc2cnccc21`, in that order: 1.5 and 1.
On to `CCNC(=O)c1cc(OC)nc(N(C)C)n1`, for which, in series [1], the pKa came out at 2.4. The same molecule showed a logP in series [2] of 2.5. The logD in series [3] came to 2.6.
With `CCNC(=O)c1nc(OC)cc(N(C)C)n1`, the pKa in series [1] was determined as 2.9. Besides, the logP in series [2] was found to be 1.1. In addition, in series [3], the log distribution coefficient (logD) came out at 1.
